# According to patent US5162328A, “N-[3-[2-(1H-imidazol-1-yl)ethoxy]phenyl]-4-(2-thienyl)-2-pyrimidinamine and pharmacologically acceptable salts” (American Cyanamid Company, priority 1991, dated 1992):
# Where “and” joins values, the source holds several entries; their conditions need not be identical. Equal entries are not always repeated.
# How the values were obtained:
# [1] = system: immunologically stimulated human basophils; assay: Inhibition of histamine release from immunologically stimulated human basophils; type: cell-based; details: Homo sapiens
# Source text: The bronchospasm of allergic asthma is a consequence of the release of mediators, such as histamine and slow-reacting substances from mast cells. The role of mediator release in the induction of an asthmatic attack has been fully reviewed and documented; see […]. and Austen, K. F., Bronchial Asthma Mechanisms and Therapeutics, E. B. Weiss, Editor, Little, Brown and Company, Boston, 163, (1976); Lichtenstein, L. M., Asthma-Physiology, Immunopharmacology and Treatment, Second International Symposium, L. M. Lichtenstein and K. F. Austen, Editors, Academic Press, New York, 51, (1979); and Bell, S. C., et al., Annular Reports in Medicinal Chemistry, 14, 51, H. J. Hess, Editor, Academic Press, New York, (1979). The novel compounds of this invention have been tested by the procedure of Lichtenstein, L. M. and Osler, A. G., J. Exp. […] Dissolve 140.3 g of sodium chloride, 7.45 g of Trizma-Tris Pre-Set, Reagent Grade, pH 7.6 at 25° C. (Sigma Chemical Co.) in sufficient water to give a final volume of 2 liters. (Sigma chemical Co.) (30 mg/ml) Made to 0.075M and 0.5M respectively, with calcium chloride dihydrate and magnesium chloride hexahydrate. A 10 ml portion of 10× Tris Buffer and 1.0 ml of human albumin are diluted to 100 ml with water. A 10 ml portion of 10× Tris Buffer, 1.0 ml of human albumin, 0.8 ml of calcium stock and 0.2 ml of magnesium stock are diluted to 100 ml with water. Behring Diagnostics (Generally used at 10 μg protein/ml final concentration). Strength 1:100 (w:v) allergenic extract, Hollister-Stier Labs. Generally this is diluted 1:1000 to 1:10,000 (considering the vial as stock). Interdermal solutions or intramuscular preparations for hyposensitization, Hollister-Stier Labs. The final concentrations used are on the order of 1 PNU/ml. Using four 20 ml heparinized tubes, […] of blood are withdrawn from subjects with known histamine release to anti-IgE, ragweed antigen or other specific allergen. These 80 ml of blood are mixed with 20 ml of saline containing 0.6 g of dextrose and 1.2 g of dextran. The blood is allowed to sediment at room temperature in two 50 ml polycarbonate centrifuge tubes until a sharp interface develops between the red cells and plasma (60-90 minutes). The plasma, containing the leukocytes, (top) layer from each tube, is withdrawn by pipet and transferred to 50 ml polycarbonate tubes. The plasma is centrifuged for 8 minutes at 110× G at 4° C. The supernatant is carefully poured off as completely as possible and the cell button is resuspended in 2-3 ml of Tris-A buffer using a siliconized Pasteur pipet. The resuspension is accomplished by drawing the liquid gently in an out of the pipet, with the tip below the liquid until an even suspension of cells is obtained. […]
# [2] = system: passive cutaneous anaphylaxis lesions in the rat; assay: Rat Passive Cutaneous Anaphylaxis Assay (PCA); type: in vivo, rat (male Wistar strain); details: for Lesion Area (Low IgE): IgE 25 ng/site; for Lesion Area (Low IgE) / Lesion Area (High IgE): mean ± SD; for Lesion Area (High IgE): IgE 50 ng/site
# Description: Solutions made by dissolving 0.50 g in 100 ml of normal saline. Mouse monoclonal IgE (ICN Biochemicals) clone SPE-7 directed against DNP is subdivided into 50 ul aliquots and stored at -70° C. DNP-ovalbumin is made by reacting DNP sulfonic acid with ovalbumin dissolved in saline overnight at room temperature. The resulting solution is dialyzed extensively at 4 C to remove unreacted DNPsulfonic acid and stored as 1 mL aliquots of 100 mg/ml at -70° C. Male Wistar strain rats, certified viral free, weighing 250-300 g are obtained from Hilltop Laboratory Animals and housed, in accordance with AALAC standards, on site for at least one week before use. Forty-eight hours before challenge the rats are shaved on the dorsal surfaces and returned to the cages. Twenty-four hours before challenge the rats are given intradermal injections of 0.1 mL, one on each flank, of saline containing IgE at concentrations ranging from 1000 to 250 ng/mL. These injections give a local dose of 100 to 25 ng IgE. The IgE binds to specific receptors on mast cells in the skin. […] To the Evan's blue dye is added sufficient DNP-ovalbumin to make a 1 mg/ml solution. This allergen containing dye is injected intravenously via a tail vein into the rats at 10 ml/Kg. The Evans' blue binds to plasma albumin and remains in the vascular space under conditions of normal capillary permeability. The allergen, which can diffuse into the extravascular space, binds to the IgE on the surface of the cutaneous mast cells and initiates the immediate hypersensitivity response which leads to the release of histamine by intracellular granules of the mast cell. The histamine causes an increase in capillary permeability which allows plasma proteins including the dye tagged albumin to diffuse into the extracellular space resulting in a blue spot in the skin. The size of the lesion is proportional to the amounts of mediators released. This process reaches an optimum in 30 minutes. Thirty minutes after challenge the rats are euthanized by CO2. The skin is reflected from the back and the lesion areas estimated as the product of the largest diameter of the bluespot and the diameter perpendicular to it. A compound which is a mediator release inhibitor will reduce the spot area. The effectiveness of the compounds is determined by Analysis of Variance of the lesion areas grouped by IgE dose and compound. Compounds are considered active at the P<0.05 level. Table II contains the results of the experiments expressed as the areas of the lesions in mm^2. The control lesions for these experiments are also listed. Because more than one compound at a time is tested, some of the control values are repeated in the table. Table III contains the data expressed as a % of the appropriate control.
# [3] = 2.0 mg/kg PO 2 hrs, hydrochloride
structure (smiles),measurement,setting,value
"Cl.c1cc(Nc2nccc(-c3cccs3)n2)cc(OCCn2ccnc2)c1 [Compound 1, N-[3-[2-(1H-Imidazol-1-yl)ethoxy]phenyl]-4-(2-thienyl)-2-pyrimidinamine hydrochloride]",IC50,[1],100 ± 10 nM
same,Lesion Area (Low IgE),[2]; 0.125 mg/kg PO 2 hrs,87 ± 16 mm^2
same,Lesion Area (High IgE),[2]; 0.125 mg/kg PO 2 hrs,132 ± 20 mm^2
same,Lesion Area (Low IgE),[2]; 0.25 mg/kg PO 2 hrs,92 ± 13 mm^2
same,Lesion Area (High IgE),[2]; 0.25 mg/kg PO 2 hrs,127 ± 19 mm^2
same,Lesion Area (High IgE),"[2]; 1.0 mg/kg PO 2 hrs, hydrochloride",115 ± 14 mm^2 and 100 ± 20 mm^2 and 129 ± 26 mm^2
same,Lesion Area (Low IgE),[2]; 1.5 mg/kg PO 2 hrs,56 ± 22 mm^2
same,Lesion Area (High IgE),[2]; 1.5 mg/kg PO 2 hrs,128 ± 43 mm^2
same,% CONTROL (lesion area),[2]; 1.5 mg/kg PO @ 2 hrs,41.8%
same,Lesion Area (Low IgE),[2]; [3],71 ± 20 mm^2 and 76 ± 14 mm^2
same,Lesion Area (High IgE),[2]; [3],103 ± 5 mm^2 and 119 ± 19 mm^2
same,% CONTROL (lesion area),"[2]; 2 mg/kg PO @ 2 hrs, hydrochloride",56.8% and 43.3%
same,Lesion Area (Low IgE),[2]; 2.5 mg/kg PO 2 hrs,8 ± 15 mm^2
same,Lesion Area (High IgE),[2]; 2.5 mg/kg PO 2 hrs,17 ± 30 mm^2
same,% CONTROL (lesion area),[2]; 2.5 mg/kg PO @ 2 hrs,15.0%
